# Measurements: patent US20250319046A1, “PHENYLALANINE-BASED LAT1 INHIBITORS AND USES THEREOF” (MAXYMUNE THERAPEUTICS, INC., priority 2024, published 2025)
# Structures can show the parent of a compound that is named as a salt. Where two headings read alike, the source gives them in different places.
# Legend:
# [1] = target: LAT1 (Homo sapiens (Human), UniProt Q01650); assay: LAT1 uptake inhibition assay: [3H]-gabapentin competition uptake in LN229 cells; assay type: cell-based; conditions: [3H]-gabapentin uptake
# Procedure, shortened: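 LN229 cells grown 3 days, then incubated 15 min in PBS with 50,000 cpm [3H]-gabapentin plus increasing compound concentrations (≥triplicate); cell-retained radioactivity counted by scintillation. Background (10 mM unlabelled gabapentin) subtracted, data normalized to DMSO control and fitted to Michaelis-Menten equation.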
# [2] = tested on: LN229 cells; assay: Amino acid starvation assay: antiproliferation assay with LN229 cells (CellTiter-Glo); assay type: cell-based; conditions: F12K medium, six days
# Method: Amino Acid Starvation Assay
# The ability of compounds to inhibit amino acid uptake interact with LAT1 was measured using an antiproliferation assay with LN229 cells (ATCC®). LN229 cells were cultured in DMEM medium (VWR International). Two (2)×10^3 (2,000) cells/well were plated in clear bottom 96-well plates (CellBIND®, Corning 3340) and were allowed to attach overnight. The next day, cells were washed once with PBS buffer (VWR International). F12K medium ([…]) (VWR International) with increasing concentrations of test compounds in at least triplicate was added. Cells were incubated for six (6) days at 37° C. and 5% CO2. At end of the assay, 140 μL of supernatant medium were removed from each well and 60 μL of CellTiter-Glo® (Promega) were added. Cell lysis was induced by placing the plates for three (3) minutes on an orbital shaker. Plates were incubated for 10 min at 25° C. to stabilize the luminesce signal. Luminescence was recorded using an EnSpire® Multimode Plate Reader (Perkin Elmer). Background (luminescence from wells incubated in the presence of 100 µM of commercial LAT1 inhibitor JPH203 (MedKoo) was subtracted, and data were normalized to the DMSO control (proliferation in the absence of any competitor). Data were fitted to the Michaelis-Menten equation using GraphPad Prism (Version 8.2.0).
# [3] = 15 min incubation in PBS, read-out: IC50, the concentration of test compound at which the [3H]-GP uptake was inhibited by 50%
# [4] = Table 1, read-out: LAT1 inhibition IC50 (nM ± SE)
# [5] = Homo sapiens, LN-229, 144 h, Table 1, read-out: Anti-proliferation LC50 (μM ± SE)
# [6] = Homo sapiens, LN-229, 144 h, read-out: LC50, the concentration of test compound at which the proliferation was inhibited by 50%
# Sequence of LAT1 (Q01650 whole entry): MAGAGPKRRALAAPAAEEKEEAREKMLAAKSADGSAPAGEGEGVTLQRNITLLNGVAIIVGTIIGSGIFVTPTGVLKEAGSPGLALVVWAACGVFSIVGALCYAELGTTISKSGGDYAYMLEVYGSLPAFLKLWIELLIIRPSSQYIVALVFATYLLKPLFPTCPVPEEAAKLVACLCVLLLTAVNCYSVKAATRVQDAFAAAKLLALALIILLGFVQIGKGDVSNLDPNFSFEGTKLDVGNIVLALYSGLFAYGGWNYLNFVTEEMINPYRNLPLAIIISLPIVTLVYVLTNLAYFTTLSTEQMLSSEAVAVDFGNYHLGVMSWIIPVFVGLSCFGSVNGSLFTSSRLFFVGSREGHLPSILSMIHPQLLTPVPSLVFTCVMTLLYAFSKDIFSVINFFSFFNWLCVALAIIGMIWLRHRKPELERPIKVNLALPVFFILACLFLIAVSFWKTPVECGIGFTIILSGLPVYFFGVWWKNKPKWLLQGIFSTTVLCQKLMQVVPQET
# Sequence of LAT1 (P08195 whole entry partner): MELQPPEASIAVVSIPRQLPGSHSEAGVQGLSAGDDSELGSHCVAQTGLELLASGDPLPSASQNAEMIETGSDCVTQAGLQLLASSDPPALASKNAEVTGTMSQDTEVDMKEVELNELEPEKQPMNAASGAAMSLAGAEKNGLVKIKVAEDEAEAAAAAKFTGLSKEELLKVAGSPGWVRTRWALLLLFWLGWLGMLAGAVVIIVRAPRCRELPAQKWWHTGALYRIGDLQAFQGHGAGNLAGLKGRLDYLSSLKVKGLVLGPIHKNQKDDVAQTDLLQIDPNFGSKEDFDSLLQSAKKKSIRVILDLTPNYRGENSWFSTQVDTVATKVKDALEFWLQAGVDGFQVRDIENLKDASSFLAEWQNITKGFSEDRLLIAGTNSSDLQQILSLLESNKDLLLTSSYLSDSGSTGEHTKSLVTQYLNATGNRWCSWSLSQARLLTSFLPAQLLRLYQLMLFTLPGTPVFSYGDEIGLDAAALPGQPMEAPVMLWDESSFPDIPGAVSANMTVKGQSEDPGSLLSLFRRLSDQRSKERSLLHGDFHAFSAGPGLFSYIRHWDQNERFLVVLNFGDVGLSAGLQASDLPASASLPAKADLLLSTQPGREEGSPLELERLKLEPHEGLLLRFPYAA
SMILES,"IC50 [1, 3] [nM]","IC50 [1, 4] [nM]","CC50 [2, 5] [µM]","CC50 [2, 6] [µM]",IC50 ([1]; read-out: IC50 in the LAT1 uptake inhibition assay) [nM],"CC50 ([2]; Table 1, read-out: Anti-proliferation LC50 (μM ± SE)) [µM]"
"Cc1ccc(NS(=O)(=O)c2cccc(-c3ccccc3)c2)cc1C[C@H](N)C(=O)O [Compound 38, (S)-3-(5-([1,1′-Biphenyl]-3-sulfonamido)-2-methylphenyl)-2-aminopropanoic Acid]",20 to 100,40 ± 10,52 ± 2,30 to 100,–,–
"Cc1ccc(NS(=O)(=O)c2ccc(C(C)(C)C)cc2)cc1C[C@H](N)C(=O)O [Compound 87, (S)-2-Amino-3-(5-((4-(tert-butyl)phenyl)sulfonamido)-2-methylphenyl)propanoic Acid]",20 to 100,100 ± 20,100 ± 20,≥ 100,–,–
"CC(C)c1ccc(NS(=O)(=O)c2cccc3c(N(C)C)cccc23)cc1C[C@H](N)C(=O)O [Compound 21, (S)-2-Amino-3-(5-((5-(dimethylamino)naphthalene)-1-sulfonamido)-2-isopropylphenyl)propanoic Acid]",20 to 100,50 ± 10,49 ± 1,30 to 100,–,–
"Cc1ccc(S(=O)(=O)NCc2ccccc2)cc1C[C@H](N)C(=O)O [Compound 30, (S)-2-Amino-3-(5-(N-benzylsulfamoyl)-2-methylphenyl)propanoic Acid]",≤ 20,20 ± 4,38 ± 2,30 to 100,–,–
"CC(C)c1ccc(S(=O)(=O)Nc2ccc(Cl)cc2)cc1C[C@H](N)C(=O)O [Compound 86, (S)-2-Amino-3-(5-(N-(4-chlorophenyl)sulfamoyl)-2-isopropylphenyl)propanoic Acid]",≤ 20,10 ± 1,4 ± 0.7,< 30,–,–
"Cc1ccc(S(=O)(=O)Nc2ccc(Br)cc2)cc1C[C@H](N)C(=O)O [Compound 77, (S)-2-Amino-3-(5-(N-(4-bromophenyl)sulfamoyl)-2-methylphenyl)propanoic Acid]",≤ 20,12 ± 4,13 ± 1,< 30,–,–
"Cc1ccc(NS(=O)(=O)c2ccccc2)cc1C[C@H](N)C(=O)O [Compound 10, (S)-2-Amino-3-(2-methyl-5-(phenylsulfonamido)phenyl)propanoic Acid]",20 to 100,100 ± 40,70 ± 20,30 to 100,–,–
"COc1ccc(NS(=O)(=O)c2ccc(C)c(C[C@H](N)C(=O)O)c2)cc1 [Compound 44, (S)-2-Amino-3-(5-(N-(4-methoxyphenyl)sulfamoyl)-2-methylphenyl)propanoic Acid]",≤ 20,10 ± 3,20 ± 6,< 30,–,–
"Nc1cc(COc2c(Cl)cc(C[C@H](N)C(=O)O)cc2Cl)c2oc(-c3ccccc3)nc2c1 [JPH203, (S)-2-Amino-3-(4-((5-amino-2-phenylbenzo[d]oxazol-7-yl)methoxy)-3,5-dichlorophenyl)propanoic Acid, reference compound]",–,–,–,20 ± 10,19 ± 6,–
"Cc1ccc(NS(=O)(=O)c2cccc(Br)c2)cc1C[C@H](N)C(=O)O [Compound 29, (S)-2-Amino-3-(5-((3-bromophenyl)sulfonamido)-2-methylphenyl)propanoic Acid]",20 to 100,40 ± 10,90 ± 30,30 to 100,–,–
"Cc1ccc(S(=O)(=O)Nc2cccc(Br)c2)cc1C[C@H](N)C(=O)O [Compound 76, (S)-2-Amino-3-(5-(N-(3-bromophenyl)sulfamoyl)-2-methylphenyl)propanoic Acid]",≤ 20,9 ± 3,11 ± 1,< 30,–,–
"Cc1ccc(S(=O)(=O)Nc2cccc3ccccc23)cc1C[C@H](N)C(=O)O [Compound 39, (S)-2-Amino-3-(2-methyl-5-(N-(naphthalen-1-yl)sulfamoyl)phenyl)propanoic Acid]",20 to 100,24 ± 9,32 ± 2,30 to 100,–,–
"Cc1ccc(S(=O)(=O)Nc2ccc(Cl)cc2)cc1C[C@H](N)C(=O)O [Compound 52, (S)-2-Amino-3-(5-(N-(4-chlorophenyl)sulfamoyl)-2-methylphenyl)propanoic Acid]",≤ 20,12 ± 2,9.7 ± 0.7,< 30,–,–
"Cc1ccc(S(=O)(=O)Nc2cccc3c(N(C)C)cccc23)cc1C[C@H](N)C(=O)O [Compound 49, (S)-2-Amino-3-(5-(N-(5-(dimethylamino)naphthalen-1-yl)sulfamoyl)-2-methylphenyl)propanoic Acid]",20 to 100,80 ± 20,100 ± 10,≥ 100,–,–
"Cc1ccc(S(=O)(=O)NC2CCCCC2)cc1C[C@H](N)C(=O)O [Compound 53, (S)-2-Amino-3-(5-(N-cyclohexylsulfamoyl)-2-methylphenyl)propanoic Acid]",20 to 100,60 ± 10,100 ± 10,≥ 100,–,–
"N[C@@H](Cc1cccc(S(=O)(=O)Nc2ccc(Cl)cc2)c1)C(=O)O [Compound 79, (S)-2-Amino-3-(3-(N-(4-chlorophenyl)sulfamoyl)phenyl)propanoic Acid]",20 to 100,80 ± 10,100 ± 20,≥ 100,–,–
"CCCCNS(=O)(=O)c1ccc(C)c(C[C@H](N)C(=O)O)c1 [Compound 41, (S)-2-Amino-3-(5-(N-butylsulfamoyl)-2-methylphenyl)propanoic Acid]",20 to 100,56 ± 9,36 ± 10,30 to 100,–,–
"Cc1ccc(S(=O)(=O)Nc2ccc(Cl)cc2)cc1C[C@H](N)C(=O)OC(C)(C)C [Compound 82, tert-Butyl (S)-2-amino-3-(5-(N-(4-chlorophenyl)sulfamoyl)-2-methylphenyl)propanoate]",20 to 100,–,–,≥ 100,–,–
"Cc1ccc(S(=O)(=O)Nc2ccccc2)cc1C[C@H](N)C(=O)O [Compound 35, (S)-2-Amino-3-(2-methyl-5-(N-phenylsulfamoyl)phenyl)propanoic Acid Hydrochloride]",–,30 ± 8,–,–,–,40 ± 10
"Cc1ccc(S(=O)(=O)Nc2ccc(-c3ccccc3)cc2)cc1C[C@H](N)C(=O)O [Compound 40, (S)-3-(5-(N-([1,1′-Biphenyl]-4-yl)sulfamoyl)-2-methylphenyl)-2-aminopropanoic Acid]",20 to 100,25 ± 8,60 ± 20,30 to 100,–,–
